Laboratory results as given in PubChem BioAssay (NCI).
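GI50 = concentration required for 50% inhibition of growth. The concentration for full growth arrest is given as TGI.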

Experiments:
Assay in all cases: NCI anticancer screen, dose series, 384-well format
[1] = tested on: HOP-92 NSCLC
[2] = tested on: PC-3 prostate
[3] = tested on: OVCAR-8 ovarian
[4] = tested on: NCI/ADR-RES ovarian
[5] = tested on: HCC-2998 colon
[6] = tested on: UO-31 renal
[7] = tested on: M14 melanoma
[8] = tested on: UACC-257 melanoma
[9] = tested on: SNB-19 CNS
[10] = tested on: HL-60(TB) leukemia
[11] = tested on: T-47D breast
[12] = tested on: UACC-62 melanoma
[13] = tested on: HS 578T breast
[14] = tested on: ACHN renal
[15] = tested on: KM12 colon
[16] = tested on: HCT-116 colon
[17] = tested on: NCI-H23 lung
[18] = tested on: DU-145 prostate
[19] = tested on: CAKI-1 renal
[20] = tested on: HCT-15 colon
[21] = tested on: COLO 205 colon
[22] = tested on: NCI-H522 lung
[23] = tested on: OVCAR-4 ovarian
[24] = tested on: SNB-75 CNS
[25] = tested on: NCI-H460 NSCLC
[26] = tested on: NCI-H226 lung
[27] = tested on: SR leukemia
[28] = tested on: OVCAR-3 ovarian
[29] = tested on: MDA-MB-231 breast
[30] = tested on: LOX IMVI melanoma
[31] = tested on: NCI-H322M lung
[32] = tested on: SF-268 CNS
[33] = tested on: MDA-MB-435 melanoma
[34] = tested on: 786-0 renal
[35] = tested on: SK-MEL-5 melanoma
[36] = tested on: SW-620 colon
[37] = tested on: SK-OV-3 ovarian
[38] = tested on: MOLT-4 leukemia
[39] = tested on: K-562 leukemia
[40] = tested on: A549 NSCLC
[41] = tested on: RPMI-8226 leukemia
[42] = tested on: MALME-3M melanoma
[43] = tested on: SF-539 CNS
[44] = tested on: U251 glioblastoma
[45] = tested on: SF-295 CNS
[46] = tested on: SN12C renal
[47] = tested on: BT-549 breast
[48] = tested on: SK-MEL-28 melanoma
[49] = tested on: RXF 393 renal
[50] = tested on: A498 renal
[51] = tested on: MDA-MB-468 breast
[52] = tested on: HT29 colon
[53] = tested on: CCRF-CEM leukemia
[54] = tested on: TK-10 renal
[55] = tested on: EKVX NSCLC
[56] = tested on: HOP-62 NSCLC
[57] = tested on: IGROV1 ovarian

CCC(Sc1nnc2c3ccccc3n(CC)c2n1)C(=O)Nc1ccccc1OC (centres undefined)
GI50 [1]: > 100 µM | TGI [1]: > 100 µM | GI50 [2]: > 100 µM | TGI [2]: > 100 µM | GI50 [3]: > 100 µM | TGI [3]: > 100 µM | GI50 [4]: > 100 µM | TGI [4]: > 100 µM | GI50 [5]: > 100 µM | TGI [5]: > 100 µM | GI50 [6]: 3.74 µM | TGI [6]: > 100 µM | GI50 [7]: > 100 µM | TGI [7]: > 100 µM | GI50 [8]: > 100 µM | TGI [8]: > 100 µM | GI50 [9]: > 100 µM | TGI [9]: > 100 µM | GI50 [10]: 444 nM | TGI [10]: 1480 nM | GI50 [11]: > 100 µM | TGI [11]: > 100 µM | GI50 [12]: > 100 µM | TGI [12]: > 100 µM | GI50 [13]: > 100 µM | TGI [13]: > 100 µM | GI50 [14]: > 100 µM | TGI [14]: > 100 µM | GI50 [15]: > 100 µM | TGI [15]: > 100 µM | GI50 [16]: > 100 µM | TGI [16]: > 100 µM | GI50 [17]: 1670 nM | TGI [17]: 5.23 µM | GI50 [18]: > 100 µM | TGI [18]: > 100 µM | GI50 [19]: 384 nM | TGI [19]: 2650 nM | GI50 [20]: 7.59 µM | TGI [20]: > 100 µM | GI50 [21]: > 100 µM | TGI [21]: > 100 µM | GI50 [22]: > 100 µM | TGI [22]: > 100 µM | GI50 [23]: > 100 µM | TGI [23]: > 100 µM | GI50 [24]: > 100 µM | TGI [24]: > 100 µM | GI50 [25]: > 100 µM | TGI [25]: > 100 µM | GI50 [26]: > 100 µM | TGI [26]: > 100 µM | GI50 [27]: 3.3 µM | TGI [27]: 5.99 µM | GI50 [28]: 3.28 µM | TGI [28]: > 100 µM | GI50 [29]: > 100 µM | TGI [29]: > 100 µM | GI50 [30]: > 100 µM | TGI [30]: > 100 µM | GI50 [31]: 4.91 µM | TGI [31]: > 100 µM | GI50 [32]: > 100 µM | TGI [32]: > 100 µM | GI50 [33]: > 100 µM | TGI [33]: > 100 µM | GI50 [34]: > 100 µM | TGI [34]: > 100 µM | GI50 [35]: 5.43 µM | TGI [35]: > 100 µM | GI50 [36]: > 100 µM | TGI [36]: > 100 µM | GI50 [37]: > 100 µM | TGI [37]: > 100 µM | GI50 [38]: 3.51 µM | TGI [38]: 79.7 µM | GI50 [39]: 7.45 µM | TGI [39]: > 100 µM | GI50 [40]: 4.27 µM | TGI [40]: > 100 µM | GI50 [41]: 451 nM | TGI [41]: 1920 nM | GI50 [42]: > 100 µM | TGI [42]: > 100 µM | GI50 [43]: > 100 µM | TGI [43]: > 100 µM | GI50 [44]: > 100 µM | TGI [44]: > 100 µM | GI50 [45]: > 100 µM | TGI [45]: > 100 µM | GI50 [46]: 1180 nM | TGI [46]: 5.17 µM | GI50 [47]: > 100 µM | TGI [47]: > 100 µM | GI50 [48]: > 100 µM | TGI [48]: > 100 µM | GI50 [49]: > 100 µM | TGI [49]: > 100 µM | GI50 [50]: 4.74 µM | TGI [50]: > 100 µM | GI50 [51]: 229 nM | TGI [51]: 475 nM | GI50 [52]: > 100 µM | TGI [52]: > 100 µM | GI50 [53]: > 100 µM | TGI [53]: > 100 µM | GI50 [54]: > 100 µM | TGI [54]: > 100 µM | GI50 [55]: 547 nM | TGI [55]: 5.44 µM | GI50 [56]: 3.56 µM | TGI [56]: > 100 µM | GI50 [57]: > 100 µM | TGI [57]: > 100 µM
